The results in this text go back to paper PMC5698418 (Nature Communications, 2017).

One experiment relates to Arc protein. The experiment can be described thus: Western blot of total Arc protein in primary cortical neurons. The experiment is classed as cell-based, mouse. As to conditions: BDNF 6 h supplemented with compound.
Another experiment deals with GluA1 mRNA. The experiment can be described thus: GluA1 mRNA by RT-qPCR in cortical neurons. The following applies: BDNF plus AK-7 16.7 µM vs BDNF plus vehicle, 6 h. The experiment is classed as cell-based, mouse. As for the experimental part: (§1) After experimental treatment, total RNA was isolated from primary cortical neuron cultures using the TRIzol method (Invitrogen). The concentration of total RNA was measured using a NanoDrop 1000 spectrophotometer (Thermo Fisher Scientific, Rockford, IL) and first-strand complementary DNA (cDNA) was synthesized using the iScript cDNA Synthesis Kit (Bio-Rad, Hercules, CA). Real-time PCRs were performed using gene-specific primers and monitored by quantification of SYBR Green I fluorescence using a Bio-Rad CFX96 Real-Time Detection System. Expression was normalized against Gapdh expression. The relative quantification from at least three biological replicates was performed using the comparative cycle threshold (∆∆CT) method.
(§2) Primers for real-time reverse transcription PCR experiments were: Arc, 5′-[…]-3′ (forward) and 5′-[…]-3′ (reverse); Map2, 5′-[…]-3′ (forward) and 5′-[…]-3′ (reverse); GluA1, 5′-[…]-3′ (forward) and 5′-[…]-3′ (reverse); GluA2, 5′-[…]-3′ (forward) and 5′-[…]-3′ (reverse); Gapdh, 5′-[…]-3′ (forward) and 5′-[…]-3′ (reverse).
(§3) Supplementary Fig. 6. […] Bars represent mean fold-change and error bars indicate range from five biological replicates.

The test system of a further experiment is GluA2 mRNA. The experiment can be described thus: GluA2 mRNA by RT-qPCR in cortical neurons. The experiment is classed as cell-based, mouse. The following applies: BDNF plus AK-7 16.7 µM vs BDNF plus vehicle, 6 h. As for the experimental part:
as §1, §2, §3

For the next experiment, the target named is T1, HDAC3 (Homo sapiens, UniProt O15379).
T1 construct: purchased BPS Bioscience (San Diego, CA), contract assay service
T1 sequence (O15379 whole entry): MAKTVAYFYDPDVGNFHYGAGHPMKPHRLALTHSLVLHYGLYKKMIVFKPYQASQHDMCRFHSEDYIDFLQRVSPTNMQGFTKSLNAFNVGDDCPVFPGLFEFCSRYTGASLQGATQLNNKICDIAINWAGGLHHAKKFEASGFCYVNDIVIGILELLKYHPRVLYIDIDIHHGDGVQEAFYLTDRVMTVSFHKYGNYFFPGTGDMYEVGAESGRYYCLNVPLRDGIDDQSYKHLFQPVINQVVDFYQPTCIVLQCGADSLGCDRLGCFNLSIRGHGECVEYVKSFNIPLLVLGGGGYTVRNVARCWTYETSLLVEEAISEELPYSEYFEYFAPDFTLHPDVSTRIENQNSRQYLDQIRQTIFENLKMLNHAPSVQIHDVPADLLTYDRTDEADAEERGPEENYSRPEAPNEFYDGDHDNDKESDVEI
T1 sequence (Q9Y618 395-489 partner limits assumed): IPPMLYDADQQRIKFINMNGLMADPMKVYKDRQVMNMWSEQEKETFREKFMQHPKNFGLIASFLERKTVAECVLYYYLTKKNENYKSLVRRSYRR
Nature of the experiment: Biochemical HDAC assay (BPS Bioscience), HDAC3. As to conditions: 25 µM.

In a further experiment the target is T2, HDAC8 (Homo sapiens, UniProt Q9BY41).
T2 construct: purchased BPS Bioscience (San Diego, CA), contract assay service
T2 sequence (Q9BY41 whole entry): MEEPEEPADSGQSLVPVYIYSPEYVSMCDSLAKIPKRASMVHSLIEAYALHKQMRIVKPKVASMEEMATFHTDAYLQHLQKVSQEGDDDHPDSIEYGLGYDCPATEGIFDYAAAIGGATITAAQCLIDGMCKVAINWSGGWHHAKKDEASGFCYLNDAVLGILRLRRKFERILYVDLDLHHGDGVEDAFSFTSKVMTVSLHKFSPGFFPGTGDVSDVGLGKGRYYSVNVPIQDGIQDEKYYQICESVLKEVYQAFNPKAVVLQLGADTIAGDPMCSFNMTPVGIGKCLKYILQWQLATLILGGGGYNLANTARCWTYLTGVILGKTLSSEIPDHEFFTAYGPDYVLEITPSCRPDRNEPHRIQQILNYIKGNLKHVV
Nature of the experiment: Biochemical HDAC assay (BPS Bioscience), HDAC8. The following applies: 25 µM.

The target in the next experiment is T3, HDAC5 (Homo sapiens, UniProt Q9UQL6).
T3 construct: purchased BPS Bioscience (San Diego, CA), contract assay service
T3 sequence (Q9UQL6 whole entry): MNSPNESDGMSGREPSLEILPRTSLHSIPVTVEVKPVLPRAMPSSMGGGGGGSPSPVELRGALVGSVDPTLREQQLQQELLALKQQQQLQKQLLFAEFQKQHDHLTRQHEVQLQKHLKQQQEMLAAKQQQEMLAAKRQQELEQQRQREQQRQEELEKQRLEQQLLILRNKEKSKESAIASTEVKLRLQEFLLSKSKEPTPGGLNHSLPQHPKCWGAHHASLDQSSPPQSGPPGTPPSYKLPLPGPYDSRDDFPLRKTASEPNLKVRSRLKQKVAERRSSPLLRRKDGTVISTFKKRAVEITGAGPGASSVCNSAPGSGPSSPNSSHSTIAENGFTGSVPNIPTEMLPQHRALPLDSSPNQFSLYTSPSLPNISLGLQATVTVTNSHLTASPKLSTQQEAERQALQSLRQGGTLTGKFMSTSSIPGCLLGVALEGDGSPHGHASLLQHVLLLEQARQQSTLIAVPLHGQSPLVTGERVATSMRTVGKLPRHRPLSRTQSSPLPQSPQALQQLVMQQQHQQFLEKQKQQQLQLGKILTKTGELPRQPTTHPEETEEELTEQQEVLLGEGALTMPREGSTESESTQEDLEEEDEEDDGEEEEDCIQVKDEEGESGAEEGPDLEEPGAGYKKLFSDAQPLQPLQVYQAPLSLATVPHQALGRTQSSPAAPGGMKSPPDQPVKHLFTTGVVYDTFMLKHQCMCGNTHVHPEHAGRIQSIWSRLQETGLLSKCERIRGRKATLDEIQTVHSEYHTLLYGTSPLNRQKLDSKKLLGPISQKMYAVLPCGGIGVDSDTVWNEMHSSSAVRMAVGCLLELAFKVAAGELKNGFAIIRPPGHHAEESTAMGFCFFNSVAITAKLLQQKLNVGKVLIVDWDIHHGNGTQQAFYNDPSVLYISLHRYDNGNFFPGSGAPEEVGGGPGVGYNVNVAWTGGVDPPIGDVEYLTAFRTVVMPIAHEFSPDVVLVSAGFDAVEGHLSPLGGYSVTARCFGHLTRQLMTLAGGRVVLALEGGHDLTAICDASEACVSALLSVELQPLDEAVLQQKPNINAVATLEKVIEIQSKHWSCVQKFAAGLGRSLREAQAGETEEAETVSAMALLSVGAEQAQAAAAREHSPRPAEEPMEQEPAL
The experiment can be described thus: Biochemical HDAC assay (BPS Bioscience), HDAC5. As to conditions: 25 µM.

Experiment [1] has as its system Arc puncta in dendrites of primary cortical neurons. Nature of the experiment: Arc puncta along Map2-labeled dendrites (immunocytochemistry). In kind it is cell-based, mouse. As to conditions: 16.7 µM with BDNF, vs untreated and BDNF alone; for BDNF: BDNF alone vs untreated. The text has this:
Chemical structure of each compound is presented on top. b Graphs show mean (n = 5) Arc/β-actin ratio (±SEM) for cells treated as in a. […] Tukey’s HSD post hoc test, *p < 0.05; **p < 0.01, ***p < 0.005; ****p < 0.0001. […] Representative captures of DIV14 mouse primary cortical neurons from each experimental condition co-immunostained for Arc (red fluorophore) and Map2 (green fluorophore). White arrowheads show examples of discrete Arc puncta. […] Tukey’s HSD post hoc test, *p < 0.05; ***p < 0.005; ****p < 0.0001
Indirect immunofluorescence detection of antigens was carried out using cortical neurons cultured on poly-L-lysine/laminin-coated coverslips in 24-well plates at a density of 0.1 × 10^7 per well. After experimental treatment, cells were washed twice with PBS and fixed for 30 min at room temperature with 4% paraformaldehyde in PBS. After fixation, cells were washed twice with PBS, permeabilized with PBST (PBS + 0.25% Triton X-100) for 20 min, blocked in blocking solution (PBS + 5% normal goat serum) for another 30 min, and finally incubated overnight at 4 °C with the first primary antibody in blocking solution. The next day, coverslips were extensively washed with PBS and incubated for 2 h at room temperature in the appropriate fluorophore-conjugated secondary antibody solution (Alexa 488- or Alexa 594-conjugated secondary antibody (Molecular Probes, Invitrogen) in blocking solution). After washing with PBS, the coverslips were incubated again overnight in primary antibody solution for the second antigen, and the procedure for conjugation of the fluorophore-conjugated secondary antibody was repeated as above. Finally, cell nuclei were counterstained with 4′,6-diamidino-2-phenylindole (DAPI), and coverslips were mounted on glass slides with ProLong Antifade reagent (Invitrogen).
(§4) Quantification of surface GluA1 puncta was performed according to the following strategy. First, overlapping digital images of GluA1 and Map2 immunostainings were collected using a Zeiss AxioObserver Z1 inverted microscope and ×63 oil immersion objective. Second, thresholding and segmentation based on the Map2 images was used to remove GluA1 signals outside of dendritic processes. Importantly, the same background/foreground cutoff threshold was used for images of all experimental conditions. Third, the length of dendrites for each image set was measured and recorded. Finally, distinct GluA1 foreground objects along dendrites >5 pixels were counted using the particle analysis tool in ImageJ and presented as the average number of GluA1 puncta per µm of dendrite length for each experimental condition.

A further experiment deals with surface GluA1. The experiment can be described thus: Surface AMPAR (GluA1) imaging along dendrites. As to conditions: 16.7 µM, 6 h with BDNF, vs untreated and BDNF alone; for BDNF: BDNF alone vs baseline. In kind it is cell-based, mouse. As for the experimental part: Our procedure to label surface AMPARs containing the GluA1 subunit was adapted from two reports[14],[61]. Precisely, DIV14 primary cortical neurons cultured on coverslips were rinsed once with room temperature PBS^MC (PBS containing 0.5 mM CaCl2, 1 mM MgCl2, and 4% sucrose). Live cells were then incubated for 30 min at room temperature with GluA1 primary antibody solution (PBS^MC with antibody against the extracellular N-terminus of GluA1 (EMD Millipore Corp, clone RH95, 5.0 µg ml^−1)). Next, cells were rinsed twice with ice-cold PBS^MC followed by fixation with 4% paraformaldehyde + 4% sucrose solution for 15 min at room temperature. After fixation, neurons were washed with regular PBS and then incubated overnight with Map2 primary antibody solution (PBS with 0.125% Triton X-100, 5% normal goat serum, and anti-Map2 antibody) to label dendrites. Next day, coverslips were washed with PBS, incubated with appropriate secondary antibodies for 1 h at room temperature, and finally mounted on glass slides with ProLong Antifade reagent (Invitrogen).
as §4

Take `O=C(Nc1cccc(Br)c1)c1cccc(S(=O)(=O)N2CCCCCC2)c1` [AK-7]: the “total Arc protein vs BDNF plus vehicle control (western blot, Arc/β-actin)” value in the experiment on Arc protein is given as “significantly more Arc protein”. Also, the “GluA1 mRNA expression” value in the experiment on GluA1 mRNA is reported as “does not affect”. The “GluA2 mRNA expression” value in the experiment on GluA2 mRNA is listed as “does not affect”. At HDAC3, the “inhibitory activity toward HDAC3” value was “failed to show any inhibitory activity”. For the same compound, the “inhibitory activity toward HDAC8” value on HDAC8 is listed as “failed to show any inhibitory activity”. The “inhibitory activity toward HDAC5” value at HDAC5 is reported as “failed to show any inhibitory activity”. The “number of Arc puncta in dendritic projections” value in experiment [1] is recorded as “significantly greater number of Arc puncta”. Besides, the “surface GluA1 puncta per dendrite µm” value in the experiment with surface GluA1 is reported as “significant decrease in surface GluA1 levels”.
